26 compounds from patent US9925189B2, “Heterocyclic receptor agonists for the treatment of diabetes and metabolic disorders” (CymaBay Therapeutics, Inc., priority 2006, dated 2018) can be followed below.

For the assay, the target named is T1, IC-GPCR2 (Homo sapiens, UniProt Q8TDV5, S309L).
T1 construct: expressed in transfected cells
T1 sequence (Q8TDV5 1-335 S309L): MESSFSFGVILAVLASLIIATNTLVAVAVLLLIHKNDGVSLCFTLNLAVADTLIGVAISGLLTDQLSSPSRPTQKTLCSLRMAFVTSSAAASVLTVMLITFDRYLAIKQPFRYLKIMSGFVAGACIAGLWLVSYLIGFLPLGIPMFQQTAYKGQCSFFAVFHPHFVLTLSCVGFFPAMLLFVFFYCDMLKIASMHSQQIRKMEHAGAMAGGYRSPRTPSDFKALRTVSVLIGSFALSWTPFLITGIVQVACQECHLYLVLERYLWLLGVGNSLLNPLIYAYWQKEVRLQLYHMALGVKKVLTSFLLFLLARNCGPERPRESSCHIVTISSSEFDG
In words: Stimulation of cAMP in CHO cells stably expressing IC-GPCR2 (HTRF cAMP assay). The format is cell-based. The conditions noted are these: 0.5 h, 30 minutes, IC-GPCR2 stably expressing CHO cells, read-out: Activity at 10 uM (% change in FRET signal from DMSO control). On the procedure:
This assay was developed using a stable cell line expressing IC-GPCR-2, generated as follows. IC-GPCR2 (SEQ ID NO:1) was cloned into Gateway pDEST 40vector (Invitrogen), using the Gateway cloning system (invitrogen) according to the manufacturer's instructions. A stable cell line was generated by transfecting a 10 cm plate of CHO cells (source) with 8 ug of this construct using Transit-CHO transfection kit (Mirus). CHO cells were plated the day prior to transfection at a density of 3,000,000 cells/plate. Clones were selected using the antibiotic G418 at 500 ug/ml. 23 clones were picked and assayed for the expression of the receptor by measuring changes in intracellular cAMP levels in response to an IC-GPCR2 agonist.
To measure cAMP activity in response to IC-GPCR2 agonist, the clones were plated in 96 well plates at 17500 cells per well. On the day after plating, cells were incubated with the IC-CPCR2 agonist at […] for 30 minutes in Ham's F12 Media (Gibco) with 0.04% DMSO. cAMP was measured using the cAMP dynamic kit from Cis Bio (Bedford, Mass.) according to the manufacturer's instructions. Briefly, cells were lysed, and cAMP levels determined by competitive immunoassay using D2 labeled cAMP, and europium cryptate tagged anti cAMP antibody. When in close proximity, the D2 and europium cryptate undergo fluorescence resonance energy transfer (FRET), which is measured as a fluorescence ratio (665 nm/620 nm). Unlabelled cAMP in the cell lysate competed with the D2 labeled cAMP for the europium crypate labeled antibody. The resulting decrease in FRET signal corresponded to intracellular cAMP levels. Fluorescence was read on a BMG Labtech PHERAstar, software version 1.50.
Compounds were dissolved in 100% DMSO to a concentration of […] to provide stock solutions. To determine activity against IC-GPCR2, compounds were incubated with IC-GPCR2 stably expressing cells (described above), at 6-8 concentrations ranging from 0.00003 to 10 micromolar, in 96 well plates, in 50 ul of Hams F12 media for 30 minutes. Cells were plated at 17500 cells per well 1 day before running the assay. All compounds were also screened against the parental CHO cells. cAMP was measured using the cAMP dynamic kit from Cis Bio (Bedford, Mass.), according to the manufacturer's instructions. Briefly, cells were lysed and cAMP levels determined by competitive immunoassay using D2 labeled cAMP, and europium cryptate tagged anti cAMP antibody. When in close proximity, the D2 and europium cryptate undergo fluorescence resonance energy transfer (FRET), which is measured as a fluorescence ratio (665 nm/620 nm). Unlabelled cAMP in the cell lysate competed with the D2 labeled cAMP for the europium crypate labeled antibody. The resulting decrease in FRET signal corresponded to intracellular cAMP levels.
Activities of compounds disclosed in Table 1 and Table 2 below are expressed as the % change in FRET signal from DMSO control. “*” no activity observed when tested at 10 micromolar but no higher concentrations were tested. NT indicates the compound was not tested at the indicated concentration.
(In general: TR-FRET usually uses a lanthanide donor and a delayed reading to cut background.)
With `O=C(OC1CCCCC1)N1CCC(c2nc(COc3ccc(-n4cnnn4)cc3)cs2)CC1` [Example 147, 4-[4-(4-Tetrazol-1-yl-phenoxymethyl)-thiazol-2-yl]-piperidine-1-carboxylic acid cyclohexyl ester], the activation at 10 µM was 56%.

Consider `CCc1cnc(N2CCC(F)(c3nc(COc4ccc(S(C)(=O)=O)cc4)cs3)CC2)nc1` [Example 88, 5-Ethyl-2-{4-fluoro-4-[4-(4-methanesulfonyl-phenoxymethyl)-thiazol-2-yl]-piperidin-1-yl}-pyrimidine], for which the activation at 10 µM amounted to 49%.

For `CC(C)(C)OC(=O)N1CCC(c2nc(COc3ccc(-n4cnnn4)cc3F)co2)CC1` [Example 122, 4-[4-(2-Fluoro-4-tetrazol-1-yl-phenoxymethyl)-oxazol-2-yl]-piperidine-1-carboxylic acid tert-butyl ester], the activation at 10 µM worked out at 76%. As to `CC(C)(C)OC(=O)N1CCC(F)(c2nc(COc3ccc(S(C)(=O)=O)cc3)cs2)CC1` [Example 87, 4-Fluoro-4-[4-(4-methanesulfonyl-phenoxymethyl)-thiazol-2-yl]-piperidine-1-carboxylic acid tert-butyl ester], the activation at 10 µM is 62%. As for `CC(C)(C)OC(=O)N1CCC(c2nc(COc3ccc(OCc4ccccc4)cc3)cs2)CC1` [Example 135, 4-[4-(4-Benzyloxy-phenoxymethyl)-thiazol-2-yl]-piperidine-1-carboxylic acid tert-butyl ester], the activation at 10 µM is 66%. For `Fc1cnc(N2CCC(c3nc(COc4ccc(-n5cnnn5)cc4)cs3)CC2)nc1` [Example 55, 5-Fluoro-2-{4-[4-(4-tetrazol-1-yl-phenoxymethyl)-thiazol-2-yl]-piperidin-1-yl}-pyrimidine], the activation at 10 µM was 66%.

Consider `CCCCOC(=O)N1CCC(c2nc(COc3ccc(-n4cnnn4)cc3)cs2)CC1` [Example 33, 4-[4-(4-Tetrazol-1-yl-phenoxymethyl)-thiazol-2-yl]-piperidine-1-carboxylic acid butyl ester], for which the activation at 10 µM amounted to 77%. The figure for `CC(C)(C)OC(=O)N1CCC(c2nc(COc3ccc(C#N)cc3F)cs2)CC1` [Example 126, 4-[4-(4-Cyano-2-fluoro-phenoxymethyl)-thiazol-2-yl]-piperidine-1-carboxylic acid tert-butyl ester] is 87%; for `CC(C)(C)OC(=O)N1CCC(c2nc(COc3ccc(-n4cnnn4)cc3)cs2)CC1` [Example 7, 4-[4-(4-Tetrazol-1-yl-phenoxymethyl)-thiazol-2-yl]-piperidine-1-carboxylic acid tert-butyl ester] it is 64%; for `CC(C)(C)OC(=O)N1CCC(c2nc(COc3ccc(-n4cncn4)cc3)cs2)CC1` [Example 5, 4-[4-(4-[1,2,4]Triazol-1-yl-phenoxymethyl)-thiazol-2-yl]-piperidine-1-carboxylic acid tert-butyl ester] it is 60%. For the compound `CCc1cnc(N2CCC(F)(c3ncc(COc4ccc(S(C)(=O)=O)cc4)s3)CC2)nc1` [Example 90, 5-Ethyl-2-{4-fluoro-4-[5-(4-methanesulfonyl-phenoxymethyl)-thiazol-2-yl]-piperidin-1-yl}-pyrimidine], the activation at 10 µM is 64%. As to `CS(=O)(=O)c1ccc(OCc2csc(C3CCN(C(=O)OC45CC6CC(CC(C6)C4)C5)CC3)n2)cc1` [Example 25, 4-[4-(4-Methanesulfonyl-phenoxymethyl)-thiazol-2-yl]-piperidine-1-carboxylic acid adamantan-1-yl ester], the activation at 10 µM is 23%. The result for `c1cc(-n2cnnn2)ccc1OCc1csc(C2CCN(c3cnc(-n4cnnn4)cn3)CC2)n1` [Example 187, 2-Tetrazol-1-yl-5-{4-[4-(4-tetrazol-1-yl-phenoxymethyl)-thiazol-2-yl]-piperidin-1-yl}-pyrazine] reads 75%. The figure for `CC(C)(C)OC(=O)N1CCC(c2nc(COc3ccc(C(=O)O)cc3)cs2)CC1` [Example 131, 4-[4-(4-Carboxy-phenoxymethyl)-thiazol-2-yl]-piperidine-1-carboxylic acid tert-butyl ester] is 24%; for `CCc1noc(N2CCC(c3nc(COc4ccc(-n5cnnn5)cc4)cs3)CC2)n1` [Example 96, 1-(3-Ethyl-[1,2,4]oxadiazol-5-yl)-4-[4-(4-tetrazol-1-yl-phenoxymethyl)-thiazol-2-yl]-piperidine] it is 79%. Take `CCc1cnc(N2CCC(c3nc(COc4ccc(-n5cnnn5)cc4F)co3)CC2)nc1` [Example 170, 5-Ethyl-2-{4-[4-(2-fluoro-4-tetrazol-1-yl-phenoxymethyl)-oxazol-2-yl]-piperidin-1-yl}-pyrimidine]: the activation at 10 µM was found to be 75%. With `COC(=O)c1cc(C)nc(N2CCC(c3nc(COc4ccc(-n5cnnn5)cc4)cs3)CC2)n1` [Example 173, 6-Methyl-2-{4-[4-(4-tetrazol-1-yl-phenoxymethyl)-thiazol-2-yl]-piperidin-1-yl}-pyrimidine-4-carboxylic acid methyl ester], the activation at 10 µM was found to be 75%. The result for `COc1ccc(-c2cnc(N3CCC(c4nc(COc5ccc(-n6cnnn6)cc5)cs4)CC3)nc2)cc1` [Example 66, 5-(4-Methoxy-phenyl)-2-{4-[4-(4-tetrazol-1-yl-phenoxymethyl)-thiazol-2-yl]-piperidin-1-yl}-pyrimidine] reads 57%; that for `CCc1cnc(N2CCC(c3nc(COc4ccc(S(C)(=O)=O)cc4)no3)CC2)nc1` [Example 84, 5-Ethyl-2-{4-[3-(4-methanesulfonyl-phenoxymethyl)-[1,2,4]oxadiazol-5-yl]-piperidin-1-yl}-pyrimidine], 59%. `CCc1cnc(N2CCC(c3nc(COc4ccc(-n5cnnn5)cc4Cl)cs3)CC2)nc1` [Example 120, 2-{4-[4-(2-Chloro-4-tetrazol-1-yl-phenoxymethyl)-thiazol-2-yl]-piperidin-1-yl}-5-ethyl-pyrimidine]: the activation at 10 µM amounted to 73%. On to `O=C(CN1CCC(c2nc(COc3ccc(-n4cnnn4)cc3)cs2)CC1)c1ccc(OC(F)(F)F)cc1` [Example 153, 2-{4-[4-(4-Tetrazol-1-yl-phenoxymethyl)-thiazol-2-yl]-piperidin-1-yl}-1-(4-trifluoromethoxy-phenyl)-ethanone], for which the activation at 10 µM was 44%. With `CCc1cnc(N2CCC(c3nc(COc4ccc(-n5cnnn5)cc4C(F)(F)F)cs3)CC2)nc1` [Example 119, 5-Ethyl-2-{4-[4-(4-tetrazol-1-yl-2-trifluoromethyl-phenoxymethyl)-thiazol-2-yl]-piperidin-1-yl}-pyrimidine], the activation at 10 µM was 53%. As for `CCc1cnc(N2CCC(c3nc(COc4ccc(-n5cnnn5)cc4C)cs3)CC2)nc1` [Example 164, 5-Ethyl-2-{4-[4-(2-methyl-4-tetrazol-1-yl-phenoxymethyl)-thiazol-2-yl]-piperidin-1-yl}-pyrimidine], the activation at 10 µM is 68%. Regarding `CCCCN1CCC(c2nc(COc3ccc(-n4cnnn4)cc3)cs2)CC1` [Example 152, 1-Butyl-4-[4-(4-tetrazol-1-yl-phenoxymethyl)-thiazol-2-yl]-piperidine], the activation at 10 µM is 68%. On to `FC(F)(F)c1cnc(N2CCC(c3nc(COc4ccc(-n5cnnn5)cc4)cs3)CC2)nc1` [Example 205], for which the activation at 10 µM came out at 75%.

Consider `CCc1cnc(N2CCC(c3nc(COc4cccc(-n5cnnn5)c4)cs3)CC2)nc1` [Example 11], for which the activation at 10 µM was found to be 34%.
